“And” between values parts separate entries of the source, which are not always exact repeats. Identical values can stand only once.

Experimental findings from article PMC9551036, “A selective and orally bioavailable VHL-recruiting PROTAC achieves SMARCA2 degradation in vivo” (Nature Communications, 2022) are described below.

For assay [1], the system named is VCB: PROTAC: SMARCA2^BD ternary complex. Put plainly: TR-FRET ternary complex affinity and cooperativity, SMARCA2. Type of assay: binding, human. The conditions noted are these: ratio TR-FRET EC50 / TR-FRET EC50 +VCB measured in the same run, SMARCA2BD. (In TR-FRET formats the signal depends on donor and acceptor labels being close together.)
For assay [2], the target named is VCB: PROTAC: SMARCA4^BD ternary complex (Homo sapiens, UniProt P40337+P51532). Put plainly: SPR ternary complex measurement, VCB immobilised, 10 µM SMARCA4^BD present. The conditions noted are these: for Kd: SPR; for alpha: cooperativity, SMARCA4, ratio of KD values measured in the same run. Type of assay: binding. More on the design: P51532, residues 1448–1569 with additional N-terminal SM residues; His6 (TEV site) (N, cleaved yes); GST (TEV site) (N, cleaved yes); made in house; host or cells: SMARCA4^BD: Escherichia coli BL21(DE3). The protocol:
(§1) SPR data were acquired on Biacore 8K or T200 instruments (Cytiva). Target proteins were immobilised at 25 °C on CM5 chips by amine coupling (EDC/NHS, Cytiva) in HBS-P+ running buffer (pH 7.4), containing 2 mM TCEP. […] The reference surface was subsequently deactivated using 1 M ethanolamine. […] Biotinylated VCB was prepared as previously described[27]: in brief, the complex was mixed 1:1 with EZ-Link NHS–PEG4–biotin (Thermo Scientific) and incubated at room temperature for 1 h. Unreacted NHS-biotin was removed using a PD-10 desalting column (Cytiva) into 20 mM HEPES, pH 7.5, 150 mM sodium chloride and 1 mM DTT. The reference surface was generated by deactivating the EDC/NHS-treated surface with 1 M ethanolamine. All interaction experiments were done at 6 °C in running buffer (20 mM TRIS, pH 8.3, 150 mM potassium chloride, 2 mM magnesium chloride, 2 mM TCEP, 0.005% TWEEN 20, 1% dimethyl sulfoxide). For ternary complex measurements, a sensor chip surface with VCB immobilised was used (preparation as described above). Experiments were run in dual-inject mode with 10 µM SMARCA present during the injection and dissociation phase. Sensorgrams from reference surfaces and blank injections were subtracted from the raw data prior to data analysis using Biacore Insight software. Affinity and binding kinetic parameters were determined by global fitting using the 1:1 interaction model with a term for mass-transport included.

In assay [3] the target is T1, VCB complex (Homo sapiens, UniProt P40337).
T1 construct: His6 (TEV site) (N, cleaved yes); made in house
Put plainly: SPR binary binding to immobilised VCB complex. The protocol: SMARCA4^BD was provided by the Structural Genomics Consortium (SGC), Toronto[32] and SMARCA2^BD and PRM1^BD5 were synthesised by GeneArt then subcloned into pDEST15 vectors (Invitrogen). The VCB complex was expressed and purified as described previously, with the modification that 0.3 mM IPTG was used for induction of expression. […] Both were stored in 20 mM 4-(2-hydroxyethyl)−1-piperazineethanesulfonic acid (HEPES), 150 mM sodium chloride and 1 mM tris(2-carboxyethyl)phosphine (TCEP) pH 7.5. SMARCA2^BD, SMARCA4^BD and PBRM1^BD5 were expressed in Escherichia coli BL21(DE3) as N-terminal GST fusion proteins with a TEV protease cleavage site. Expression and purification of these proteins has been described previously[32],[33]. Starter cultures were grown overnight at 37 °C in 10 mL of Luria-Bertani (LB) medium with ampicillin (100 μg/mL). The starter cultures were diluted (1:100) in Terrific Broth (TB) medium with ampicillin (100 μg/mL) and grown in a shaking incubator at 37 °C to an optical density (OD600) ~1 before the temperature was lowered for induction (to 23 °C for SMARCA2^BD or 18 °C for SMARCA4^BD and PRRM1^BD5). […] Cells were harvested by centrifugation and stored at −80 °C prior to purification. […] The Lysis buffers were as follows: for SMARCA2^BD: 50 mM HEPES, 500 mM sodium chloride, 5% glycerol, 5 mM dithiothreitol (DTT); for SMARCA4^BD: 25 mM HEPES, 0.3 M sodium chloride, 5% glycerol, 10 mM DTT, pH 7.5; for PBRM1^BD5: 25 mM HEPES, 300 mM sodium chloride, 5% glycerol, 10 mM DTT, pH 7.8; in each case supplemented with complete protease inhibitors (Roche). Affinity purification was performed using Glutathione Sepharose 4B (GE Healthcare) in batch mode or on-column. […] For SMARCA2^BD, prior to TEV protease cleavage the eluted GST-tagged BD was first dialysed into desalting buffer (20 mM HEPES, 250 mM sodium chloride, pH 7.0 + 0.5% glycerol). Where TEV cleavage was performed in solution, a second affinity (GST-trap) column purification step was carried out to remove the GST-tag and uncleaved GST-tagged protein. Proteins were further purified by SEC (HiLoad Superdex-75, 16/600) (GE Healthcare) and stored in Storage buffer (for SMARCA2^BD: 20 mM HEPES, 150 mM sodium chloride, pH 7.5; for SMARCA4^BD: 10 mM HEPES, 0.5 M NaCl, 5% glycerol, pH 7.5; for PBRM1^BD5: 20 mM HEPES, 300 mM NaCl, 5 mM DTT, pH 7.8). For AlphaScreen assays, eluted GST-tagged BDs were purified directly by SEC in the respective storage buffers without TEV cleavage. All chromatography purification steps were performed either at room temperature or 4 °C using an ÄKTA FPLC purification system (GE Healthcare) or a plastic Econo-Pac column (Bio-Rad).
as §1, with “software.” for “software. Affinity and binding kinetic parameters were determined by global fitting using the 1:1 interaction model with a term for mass-transport included.”

[4] abbreviates: ternary complex with SMARCA4BD, mean ± SD.
The mark [5] stands for this setting: binary binding to VCB, mean ± SD.

T1 sequence (P40337 54-213): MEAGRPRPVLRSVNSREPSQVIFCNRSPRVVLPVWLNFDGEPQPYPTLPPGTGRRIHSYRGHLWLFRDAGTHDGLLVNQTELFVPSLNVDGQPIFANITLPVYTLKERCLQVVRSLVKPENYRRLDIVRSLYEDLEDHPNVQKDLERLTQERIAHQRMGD
T1 sequence (Q15369 17-112 partner limits assumed): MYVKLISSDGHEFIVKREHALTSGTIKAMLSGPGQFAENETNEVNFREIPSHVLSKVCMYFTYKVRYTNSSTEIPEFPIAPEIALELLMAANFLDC
T1 sequence (Q15370 1-104 partner limits assumed): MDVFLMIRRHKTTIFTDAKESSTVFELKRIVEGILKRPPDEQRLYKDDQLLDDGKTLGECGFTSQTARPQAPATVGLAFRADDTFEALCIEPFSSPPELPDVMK
Sequence of VCB: PROTAC: SMARCA4^BD ternary complex (P40337 54-213): as the sequence (P40337 54-213) above
Sequence of VCB: PROTAC: SMARCA4^BD ternary complex (Q15369 17-112 partner limits assumed): as the sequence (Q15369 17-112 partner limits assumed) above
Sequence of VCB: PROTAC: SMARCA4^BD ternary complex (Q15370 1-104 partner limits assumed): as the sequence (Q15370 1-104 partner limits assumed) above
Sequence of VCB: PROTAC: SMARCA4^BD ternary complex (P51532 1448-1569): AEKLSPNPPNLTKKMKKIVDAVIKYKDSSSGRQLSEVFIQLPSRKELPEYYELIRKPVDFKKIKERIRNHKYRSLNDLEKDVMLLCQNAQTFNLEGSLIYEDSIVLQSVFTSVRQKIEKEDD

What is called Kd is a measure of binding affinity in units of concentration. Regarding `Cc1ncsc1-c1ccc([C@H](CCCCCN2CCC(c3ccc4c(c3)n(C3CCCC3)c3nc(=O)c5c(Br)cccc5n43)CC2)NC(=O)[C@@H]2C[C@@H](O)CN2C(=O)[C@@H](NC(=O)C2(F)CC2)C(C)(C)C)cc1` [compound 11], the “cooperativity α (SMARCA2BD)” value in assay [1] was determined as 5.3 ± 2.1. Moreover, the Kd is 18 ± 2 nM in assay [2] (setting [4]); 16.7 nM and 16.3 nM and 19.3 nM in assay [2] (ternary, individual replicates); 9 ± 3 nM in assay [3] (setting [5]); 11.2 nM and 11.4 nM and 9.47 nM and 7.94 nM and 8.34 nM and 7.19 nM and 5.73 nM and 11.9 nM and 4.42 nM in assay [3] (binary, individual replicates). Also, in assay [2], the alpha came to 0.6.

For `Cc1ncsc1-c1ccc(CNC(=O)[C@@H]2C[C@@H](O)CN2C(=O)[C@@H](NC(=O)C2(F)CC2)C(C)(C)C)c(OCCN2CCC(c3ccc4c(c3)n(C3CCCC3)c3nc(=O)c5c(Br)cccc5n43)CC2)c1` [compound 20], the “cooperativity α (SMARCA2BD)” value in assay [1] is on record as 0.6 ± 0.2. For the same compound, the Kd is 67 ± 3 nM in assay [2] (setting [4]); 67.7 nM and 69.3 nM and 63.7 nM in assay [2] (ternary, individual replicates); 9 ± 7 nM in assay [3] (setting [5]); 6.64 nM and 20.3 nM and 5.1 nM and 5.19 nM in assay [3] (binary, individual replicates). Besides, in assay [2], the alpha worked out at 0.1.

In the case of `Cc1ncsc1-c1ccc([C@H](CC[C@@H](C)CCN2CCC(c3ccc4c(c3)n(C3CCCC3)c3nc(=O)c5c(Br)cccc5n43)CC2)NC(=O)[C@@H]2C[C@@H](O)CN2C(=O)[C@@H](NC(=O)C2(F)CC2)C(C)(C)C)cc1` [compound 29], the “cooperativity α (SMARCA2BD)” value in assay [1] is 6.4 ± 1.1. In addition, the Kd was 11 ± 1 nM in assay [2] (setting [4]); 11.5 nM (2×) and 9.84 nM in assay [2] (ternary, individual replicates); 13 ± 7 nM in assay [3] (setting [5]); 21.3 nM and 18.2 nM and 7.09 nM and 8.27 nM and 5.72 nM and 14.8 nM in assay [3] (binary, individual replicates). Also, the alpha in assay [2] is 1.1.

As for `Cc1ncsc1-c1ccc([C@H](COCCN2CCC(c3ccc4c(c3)n(C3CCCC3)c3nc(=O)c5c(Br)cccc5n43)CC2)NC(=O)[C@@H]2C[C@@H](O)CN2C(=O)[C@@H](NC(=O)C2(N(C)C)CC2)C(C)(C)C)cc1` [compound 26], the “cooperativity α (SMARCA2BD)” value in assay [1] is 5.8 ± 1.9. The Kd was 116 ± 16 nM in assay [2] (setting [4]); 105 nM and 109 nM and 135 nM in assay [2] (ternary, individual replicates); 76 ± 46 nM in assay [3] (setting [5]); 55.5 nM and 144 nM and 50.1 nM and 53.4 nM in assay [3] (binary, individual replicates). Also, the alpha in assay [2] came to 0.7.

Regarding `Cc1ncsc1-c1ccc([C@H](COCCCN2CCC(c3ccc4c(c3)n(C3CCCC3)c3nc(=O)c5c(Br)cccc5n43)CC2)NC(=O)[C@@H]2C[C@@H](O)CN2C(=O)[C@@H](NC(=O)C2(F)CC2)C(C)(C)C)cc1` [compound 27], the “cooperativity α (SMARCA2BD)” value in assay [1] worked out at 3.3 ± 0.8. Further, the Kd was 18 ± 1 nM in assay [2] (setting [4]); 16.7 nM and 17.5 nM and 19.5 nM in assay [2] (ternary, individual replicates); 12 ± 9 nM in assay [3] (setting [5]); 8.51 nM and 25.4 nM and 6.56 nM and 9 nM in assay [3] (binary, individual replicates). The alpha in assay [2] was found to be 0.7.

On to `Cc1ncsc1-c1ccc(CNC(=O)[C@@H]2C[C@@H](O)CN2C(=O)[C@@H](NC(=O)C2(F)CC2)C(C)(C)C)c(OCCOCCOCCN2CCC(c3ccc4c(c3)n(C3CCCC3)c3nc(=O)c5c(Br)cccc5n43)CC2)c1` [compound 21], for which the “cooperativity α (SMARCA2BD)” value in assay [1] is on record as 1.9 ± 0.1. In addition, the Kd in assay [2] (setting [4]) is 16 ± 11 nM; in assay [2] (ternary, individual replicates), 28 nM and 7.74 nM and 13 nM; in assay [3] (setting [5]), 21 ± 5 nM; in assay [3] (binary, individual replicates), 19.9 nM and 27 nM and 21.6 nM and 15.2 nM. In addition, the alpha in assay [2] is 1.3.

Consider `Cc1ncsc1-c1ccc(CNC(=O)[C@@H]2C[C@@H](O)CN2C(=O)[C@@H](NC(=O)C2(F)CC2)C(C)(C)C)c(OCCOCCOCCOCCN2CCC(c3ccc4c(c3)n(C3CCCC3)c3nc(=O)c5c(Br)cccc5n43)CC2)c1` [compound 22], for which, in assay [1], the “cooperativity α (SMARCA2BD)” value stood at 2.8 ±0.8. Also, the Kd in assay [2] (setting [4]) is 26 ± 2 nM; in assay [2] (ternary, individual replicates), 24.6 nM and 23.9 nM and 28 nM; in assay [3] (setting [5]), 39 ± 16 nM; in assay [3] (binary, individual replicates) it was 31.8 nM and 62.9 nM and 29.3 nM and 33 nM. Moreover, the alpha in assay [2] is 1.5.

Turning to `Cc1ncsc1-c1ccc([C@H](CC[C@H](C)CCN2CCC(c3ccc4c(c3)n(C3CCCC3)c3nc(=O)c5c(Br)cccc5n43)CC2)NC(=O)[C@@H]2C[C@H](O)CN2C(=O)[C@@H](NC(=O)C2(F)CC2)C(C)(C)C)cc1` [compound 12], the “cooperativity α (SMARCA2BD)” value in assay [1] worked out at 1.1 ± 0.3. For the same compound, the Kd in assay [3] (setting [5]) was 629 ± 88 nM; in assay [3] (binary, individual replicates), 566 nM and 691 nM.

Consider `Cc1ncsc1-c1ccc(CNC(=O)[C@@H]2C[C@H](O)CN2C(=O)[C@@H](NC(=O)C2(F)CC2)C(C)(C)C)c(OCCN2CCC(c3ccc4c(c3)n(C3CCCC3)c3nc(=O)c5c(Br)cccc5n43)CC2)c1` [compound 19], for which the “cooperativity α (SMARCA2BD)” value in assay [1] worked out at 1.2 ± 0.1.
